# Legend:
# [1] = test system: IL-2 gene expression; assay: IL-2 gene expression in Jurkat T cells activated with PMA and calcium ionophore; format: cell-based, human; conditions: 10 μM, RNA 6 hrs after activation
# Experimental: The human acute lymphoma T cell line Jurkat (ATCC # TIB 152) was used to test the possible immunosuppressive effect of dexanabinol and its analogs on T cell activation. […] 2×10^6 cells in one milliliter were stimulated using 10 ng/ml of PMA (Sigma) and 1 μM A23187 calcium ionophore (Sigma). […] The controls and test compounds were added at indicated concentrations one hour before stimulation.
# The results are plotted after normalization to cyclophilin A expression.
# [2] = test system: TNF-α secretion; assay: TNF-α secretion in LPS activated macrophages; format: cell-based; conditions: Mus musculus, Macrophage, read-out: IC50 for inhibition of TNF-α secretion
# From the text: The technique used to quantify the amount of a given protein in a liquid sample, either tissue culture supernatant or body fluid, is based on Enzyme Linked ImmunoSorbent Assay (ELISA) methodology. Either commercially available or established in house, the assay is based on the capture of the protein of interest by specific antibodies bound to the bottom of an ELISA plate well. Unbound material is washed away, the captured protein is then exposed to a secondary antibody generally labeled with horseradish peroxidase (HRP) or alkaline phosphatase (ALP). Again the unbound material is washed away, the samples are then incubated with the appropriate substrate yielding a colorimetric reaction. The reaction is stopped and reading is carried out in a spectrophotometer at the appropriate wavelength. Samples are tested at least in duplicate and the appropriate standard curve, consisting of serial dilutions of the recombinant target protein, is incorporated on each plate. Concentration of the protein in the sample is calculated from the standard curve.
# RAW 264.7 macrophages, a mouse cell line (ATCC # TIB 71), were grown in Dulbecco's modified Eagle's medium (DMEM) with 4 mM L-glutamine adjusted to contain 1.5 g/L sodium bicarbonate, 4.5 g/L glucose, and 10% heat inactivated fetal bovine serum. […]
# [3] = test system: Aspc-1; assay: Aspc-1 pancreatic tumor cell proliferation (crystal violet); format: cell-based; conditions: up to 15 μM, 24 hours
# Experimental: (§1) Cells from several tumor-derived cell lines are tested for their proliferation capacity in presence of our test compounds. Pancreatic tumor cell lines were obtained from ATCC. Panc-1 (ATCC # CRL-1469) were cultured in DMEM supplemented with 4 mM Glutamine, 4.5 g/L glucose, 1.5 g/L bicarbonate, antibiotics (penicillin, nystatin and streptomycin) and 10% heat inactivated fetal calf serum. Aspc-1 (ATCC # CRL-1682) were cultured in RPMI supplemented with 2 mM Glutamine, 10 mM HEPES, 1 mM sodium pyruvate, 4.5 g/L glucose, 1.5 g/L bicarbonate, antibiotics (penicillin, nystatin and streptomycin) and 20% heat inactivated fetal calf serum. Cells were seeded in a 24 well plate (10^5 cells/ml/well) and grown overnight. The cells are incubated with the test compounds (1-100 μM) or vehicle (0.1% DMSO final concentration). Cell viability was determined 24 hours later using standard crystal violet staining. The culture medium was removed from the wells and the cells were fixed by adding 1 ml/well of 2% formaldehyde in PBS for 10 minutes. […] The plates were agitated for 15 minutes at room temperature and 100 μl were transferred in duplicate to a 96 well plate for reading. Optical density (OD) of the cells was measured at 620 nm in an ELISA reader and results are expressed as % viable cells. Absorbance of untreated cells is recorded as 100%.
# [4] = test system: Panc-1; assay: Panc-1 pancreatic tumor cell proliferation (crystal violet); format: cell-based; conditions: Homo sapiens, 24 hours, read-out: Inhibition of Panc-1 cells proliferation
# Experimental: as §1
# [5] = test system: MPTP model of neurodegeneration; assay: MPTP long-term model: rotarod functional outcome and mortality; format: in vivo, mice
# Experimental: The mice (C57/BL male mice, average weight 30 g, Harlan, Israel) were administered i.p. with MPTP (Sigma, USA) (40 mg/kg, 5 ml/kg) in saline (Teva Medical, Israel) at 2 weeks interval for four times. The test compounds and controls were injected i.p. once just before the first MPTP administration at a volume dose of 5 ml/kg. Dexanabinol was tested at 20 mg/kg and PRS-211,220 was tested at 5 mg/kg. Each treatment group was composed of at least fourteen animals.
# Seven days following each MPTP injection, the animals were submitted to a functional test using the rotarod apparatus as described by Rozas et al. (Rozas G. et al., J. of Neuroscience Methods 83: 165-75, 1998). The performance of the animals in the rotarod system, which measures overall locomotor ability, reflects their ability to achieve functions generally affected in PD. The animals were trained for 4 days before beginning the experiment. Their task was to stay on the accelerating rod without falling for 12 minutes (3 minutes at each speed). The tested speeds were: 15, 19, 23 and 27 rpm. Animal performance on the rod was scored as follows: each animal could obtain a maximum of 3 points (1 for each minute) for full walking on the rod at each speed. […]
# Another parameter that was measured in this experiment is mortality, which was relatively high in this model.
# [6] = test system: IL-2 gene expression; assay: IL-2 gene expression in MCAo mice brains; conditions: 5 mg/kg i.v., 18 hrs following MCAo
# [7] = test system: IL-1β gene expression; assay: IL-1β gene expression in MCAo mice brains; conditions: 5 mg/kg i.v., 18 hrs following MCAo
smiles,measurement,setting,value
"CCCCCCC(C)(C)c1cc(O)c2c(c1)OC(C)(C)[C@H]1CC=C(CO)C[C@H]21 [dexanabinol, 1,1-dimethylheptyl-(3S,4S)-7-hydroxy-Δ^6-tetrahydrocannabinol]",Reduction of IL-2 fold of activation,[1],41%
same,IC50,[2],10 to 20 µM
same,Effect on Aspc-1 proliferation,[3],not affected
same,inhibition at 15 µM,[4],26%
same,Rotarod functional outcome vs vehicle,"[5]; 20 mg/kg i.p., fourth session",positive trend
same,Mortality,"[5]; 20 mg/kg, MPTP only 69%",11%
same,Reduction of IL-2 gene activation vs vehicle,[6],177%
same,Modulation of IL-1β gene expression,[7],not modulated
